Results taken from ChEMBL document CHEMBL3822430, “Discovery of pyrido[3,4-g]quinazoline derivatives as CMGC family protein kinase inhibitors: Design, synthesis, inhibitory potency and X-ray co-crystal structure” (Eur J Med Chem, 2016).

Legend:
[1] = Inhibition of porcine brain CK1 delta/epsilon using CK-S as substrate incubated for 30 mins in presence of [gamma-33 ATP] by liquid scintillation counting analysis; set-up: species or system Sus scrofa
[2] = biological target: Dual specificity tyrosine-phosphorylation-regulated kinase 1A (Rattus norvegicus, UniProt Q63470); test: Inhibition of GST-tagged rat recombinant DYRK1A expressed in Escherichia coli using myelin basic protein as substrate incubated for 30 mins in presence of [gamma-33 ATP] by liquid scintillation counting analysis
[3] = biological target: Glycogen synthase kinase-3 (Sus scrofa, UniProt B2LUN4+I6LNT8); test: Inhibition of porcine brain GSK3alpha/beta using GS-1 as substrate incubated for 10 mins in presence of [gamma-32 ATP] by liquid scintillation counting analysis
[4] = biological target: Dual specificity protein kinase CLK1 (Homo sapiens, UniProt P49759); test: Inhibition of GST-tagged human recombinant CLK1 expressed in Escherichia coli using RS peptide as substrate
Chain of Dual specificity protein kinase CLK1 (P49759 whole entry): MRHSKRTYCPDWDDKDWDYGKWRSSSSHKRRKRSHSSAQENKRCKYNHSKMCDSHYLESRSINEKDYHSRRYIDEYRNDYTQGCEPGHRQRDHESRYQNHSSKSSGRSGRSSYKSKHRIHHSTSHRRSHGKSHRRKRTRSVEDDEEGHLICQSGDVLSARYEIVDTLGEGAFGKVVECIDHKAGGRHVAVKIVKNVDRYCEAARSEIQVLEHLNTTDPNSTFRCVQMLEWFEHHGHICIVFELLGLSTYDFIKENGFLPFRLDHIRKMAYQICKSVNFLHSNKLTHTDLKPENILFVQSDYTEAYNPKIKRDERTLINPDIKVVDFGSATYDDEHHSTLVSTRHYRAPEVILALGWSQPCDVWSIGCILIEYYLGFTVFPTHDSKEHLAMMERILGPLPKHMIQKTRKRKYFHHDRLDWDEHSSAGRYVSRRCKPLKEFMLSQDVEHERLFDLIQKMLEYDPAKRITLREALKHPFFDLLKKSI

[5] = biological target: Cyclin-dependent kinase 5/CDK5 activator 1 (Homo sapiens, UniProt Q00535); test: Inhibition of GST-tagged human recombinant CDK5/p25 expressed in Escherichia coli using histone H1 as substrate incubated for 30 mins in presence of [gamma-33 ATP] by liquid scintillation counting analysis
Chain of Cyclin-dependent kinase 5/CDK5 activator 1 (Q00535 whole entry): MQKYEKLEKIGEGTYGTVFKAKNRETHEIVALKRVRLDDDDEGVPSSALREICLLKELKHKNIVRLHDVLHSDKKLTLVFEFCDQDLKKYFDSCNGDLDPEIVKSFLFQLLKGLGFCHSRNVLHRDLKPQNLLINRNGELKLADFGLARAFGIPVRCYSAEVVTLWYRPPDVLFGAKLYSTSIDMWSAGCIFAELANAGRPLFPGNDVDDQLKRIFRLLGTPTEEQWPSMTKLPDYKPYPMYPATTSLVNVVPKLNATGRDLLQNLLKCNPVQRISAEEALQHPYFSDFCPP
Chain of Cyclin-dependent kinase 5/CDK5 activator 1 (Q15078 whole entry, further chain): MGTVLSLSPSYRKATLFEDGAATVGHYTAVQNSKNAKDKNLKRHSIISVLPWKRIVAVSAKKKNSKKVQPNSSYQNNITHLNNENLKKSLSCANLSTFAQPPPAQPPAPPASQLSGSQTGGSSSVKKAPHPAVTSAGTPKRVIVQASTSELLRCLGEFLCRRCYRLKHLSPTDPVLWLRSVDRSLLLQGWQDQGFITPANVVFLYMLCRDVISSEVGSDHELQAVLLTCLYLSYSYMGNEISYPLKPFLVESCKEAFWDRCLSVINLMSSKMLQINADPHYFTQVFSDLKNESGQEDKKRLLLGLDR

| Structure (SMILES) | IC50 [1] | IC50 [2] | IC50 [3] | IC50 [4] | IC50 [5] |
| --- | --- | --- | --- | --- | --- |
| Nc1ncc2cc3cnccc3c(N)c2n1 | 5800 nM | 28 nM | 9100 nM | 41 nM | 4800 nM |
| Nc1ncc2cc3cnccc3c([N+](=O)[O-])c2n1 | 780 nM | 620 nM | 2200 nM | 69 nM | > 10000 nM |
| Nc1ncc2cc3cnccc3cc2n1 | 800 nM | 180 nM | > 10000 nM | 190 nM | > 10000 nM |
